Results on eleven compounds are retold here after patent US20050272677A1, “Delivery of a substance to a pre-determined site” (priority 2002, published 2005).

A short description of data set [1]: Urinary excretion of IOT after subcutaneous injection. Type of data set: in vivo, rat. Conditions: conscious rats. On the procedure: DOPC/DOPS (90:10, mol/mol) and DOPC/DOPE liposomes (70:30, mol/mol) liposomes were tested.
Male Wistar rats remained conscious throughout the study. To increase the time-resolution, the diuretic furosemide (10 mg/kg dose s.c) was given in the morning, seven hours before administration of the sample. Urine was collected automatically with a one hour resolution. The concentration of IOT in the urine was measured by HPLC.

Data set [2] in a line: In vivo delivery of radio-labeled myoglobin with Sunfish/co-lipid complexes.
Experimental: The low molecular-weight protein myoglobin was chosen as the model protein, the molecular weight is 17.8 kDa and iso-electric point 7.3. To enable quantification of organ uptake of myoglobin, myoglobin was radio-labeled with ^125Iodine-tyramine-cellobiose that is retained within the cell in which it is internalized.
The complexation was performed by mixing 3.5 μg of myoglobin in Tricine buffer (pH 8.5) with 75 nmol liposomes consisting of Sunfish and co-lipid in a molar ratio of 1:1 in 5% glucose solution.
Study 2: For complexation, SF-30, in combination with cholesterol in a molar ratio of 1:1, was used. […]
Study 2: BALB/c mice were injected intravenously with ^125Iodine-tyramine-cellobiose-labeled myoglobin complexed with different PEGylated lipid formulations. The mice were sacrificed after 10, 30 or 120 minutes following injection and the body distribution of ^125Iodine was determined. […]
The organ uptake is expressed as the percentage of injected dose ^125Iodine (tyramine-cellobiose) radioactivity. […] The total percentage of radioactivity in the blood was determined by multiplying the percentage per milliliter blood by 0.073 times the body weight in grams, being the total blood volume of the mouse. To allow an accurate comparison, the ratio between radioactivity in total blood and reticuloendothelial system (RES=liver+spleen) was expressed. […]
The nature of data set [3]: Urinary excretion of MAG3 after subcutaneous or intravenous injection. Particulars: free compound.
Experimental: The effect of drug formulation on the rate of drug release in vivo was tested in the rat by external counting of radioactivity.
DOPC/DOPS (90:10, mol/mol) liposomes with or without the MscL-mutant G22C were used (protein-to-lipid ratio of 1:20, wt/wt).
Encapsulation of MAG3 in liposomes was performed by freezing/thawing three times followed by extrusion through a 400 nm filter. The free fraction of the compound was removed by G50 Sephadex column separation.
The normal liposomes were loaded with MAG3 in 0.9% NaCl and eluted on the G50 column with 25 mM HEPES pH 8, 150 mM NaCl.
Male Wistar rats were anaesthetized using iso-flurane O2/NO throughout the study. Liposome-encapsulated MAG3 in a 0.5 ml volume was injected subcutaneously (in the neck) and accumulation of radioactivity in the urinary bladder constantly monitored by external counting using a gamma-camera (window: 140 keV, 250 keV width, one minute time resolution). At the end of the study (after 40 minutes), a ten times higher dose of free MAG3 was administered subcutaneously or intravenously to measure the urinary excretion rates of those formulations.
In a further data set the target is α-chymotrypsin (Bos taurus, UniProt P00766). The data set is described as follows: Cleavage of prodrug-gelling agent conjugate by α-chymotrypsin in gel and solution. The format is biochemical. As for the experimental part: The prodrug has been mixed with several gelators (neutral: C3-Am-Meth-Am-CH2CH2OCH2CH2OH as well as ionizable: DBC and C3-Am-Meth-OH) and stabile gels were obtained (0.25 wt % of the prodrug and 0.5 wt % of the gelator). […] This difference could be observed with the naked eye: after 20 minutes, the solution containing the prodrug turned bright yellow (due to the release of nitroaniline, whereas the gel containing the prodrug turned slightly yellow only after 20 hours.

Data set [4] in a line: Sol-gel phase transition temperature and photo-switching by CD spectroscopy. Type of data set: physicochemical. As for the experimental part:
(§1) In a typical gelation experiment, a carefully weighed amount of the dithienylcyclopentene derivative under investigation and 1 ml of the solvent are placed in a test tube, which is sealed and then heated until the compound is dissolved. The solution is allowed to cool to room temperature. […] The gelation process could be followed by UV-vis and CD spectroscopy as depicted in FIG. 58. At low concentrations (0.35 mM), compound D is dissolved in toluene. […] Increasing the concentration to 1.8 mM causes gelation of the solvent, which is accompanied by a change of the UV-visible spectrum, together with the appearance of a strong CD signal at 323 nm (FIG. 58, panels (a) and (c)). Similar changes in the UV-vis and CD spectrum are observed upon gelation of the 1.8 mM solution of D in toluene by cooling to a temperature below the sol-gel phase transition (from here on, referred to as gel(o)). From a plot of the increase of the CD signal versus the temperature, the sol-gel phase transition temperature of gel(o) was determined to be 29° C. for a 1.8 mM solution of D in toluene.
In a typical photo-switching experiment, a solution (1.8 mM) of Compound D in toluene was prepared by cooling from 70° C. to the desired temperature (typically between 30° C. and 60° C., i.e., above the gel-sol phase transition temperature of the open form of D) in a cuvette of 1 mm path length. This solution was then irradiated at λ1=313 nm to convert the ring-open form of Compound D to the ring-closed form. By using a 150 W Xe lamp and a 313 nm bandpass filter, the photo-stationary state (PSS) was reached, typically within 10 minutes, which consist of 60 mol % of the closed form and 40 mol % of the open form.

A short description of data set [5]: Gelation experiment (gel formation in solvents). Type of data set: physicochemical. As for the experimental part:
To obtain a gel or to thicken the solvent, the compound is mixed with the required solvent or a mixture of solvents in an amount between 0.01 and 50 wt. %, based on the weight of the composition. Typically, the dissolution of the components will be performed by heating (in some cases it may be helpful to homogenize the components, e.g., vortex) them together at temperatures of 20° C. to 200° C., preferably 50° C. to 150° C. Cooling these hot solutions to a preferred temperature in the range of −20° C. to 100° C., preferably 4° C. to 100° C. affords the gel or thickened solvent. […] In an alternative embodiment, the gelling agent is first dissolved in a polar or apolar solvent followed by the addition of another solvent or solvent mixture, thereby causing gelation to take place.
It will be understood that the use of the present gelling agents or thickeners to prepare a gel or to thicken a composition is also encompassed by the invention. As is well-known, gelling behavior of compounds or compositions is highly unpredictable. […] Preferably, the gelling phenomenon is thermoreversible.
as §1

The next data set has as its target MscL (Escherichia coli, UniProt P0A742, G22C). Type of data set: biochemical, E. coli. Particulars: G22C in DOPC:DOPS liposomes; 2.5 mM MTSEA, 10 mM MTSES. More on the design: made in house; host or cells: E. coli PB104. On the procedure:
Results Overexpression and Purification of the MscL Channel Protein
Samples were prepared and calcein efflux was monitored as described elsewhere in Example 1.
300 μl of detergent-treated liposomes were gently mixed with 240 μl of 0.25 mg/ml purified MscL-mutant G22C in elution buffer containing 0.2% Triton X-100. The mixture was incubated at 60° C. for 45 minutes, followed by the addition of an equal volume (540 μl) of calcein-loading buffer, containing 200 mM calcein, 25 mM Tris, 1 mM EDTA, pH 8.0. After addition of 20 mg of Triton X-100-absorbing Bio-Beads SM-2, the mixture was gently agitated for one hour at room temperature. Subsequently, 80 mg Bio-Beads were added and incubated at 4° C. overnight under mild agitation. Samples were prepared for calcein efflux assay as described elsewhere.

The nature of data set [6]: Release of quinolines from DBC gels by UV-Vis spectroscopy. The format is physicochemical. Conditions: into 1 mL PBS pH 7.4, initial 0.001M. An excerpt:
Entrapment of 8-aminoquinoline and 2-hydroxyquinoline (FIG. 61) was achieved by adding a PBS (phosphate-buffered saline) pH 7.4 solution of the quinoline of interest to X mg of DBC (dibenzoyl cystine); X=2, 3.5, 5 or 10, depending on the weight percentage (wt %) of gelator desired. The sample was then heated in a closed vial until complete dissolution of DBC was observed and subsequently allowed to cool to room temperature where gelation of the sample and, thus, entrapment of the quinolines in the gel occured.
After 24 hours, percentages of 8-aminoquinoline and 2-hydroxyquinoline released from DBC gels of different weight percentages into 1mL of PBS solution at pH 7.4 in contact with the gel, were measured by UV-Vis spectroscopy and are reported in Table J. The initial quinoline concentration in the gel was 0.001M. The error on each percentage is ±4%.

Data set [7] in a line: Subcutaneous pH reduction by MES buffer. The format is in vivo, rat. Conditions: pH 6.1, 0.5 ml s.c. On the procedure:
Male Wistar rats remained conscious throughout the study. The subcutaneous pH was constantly recorded using a micro-glass electrode. After stabilization of the pH, 0.5 ml MES buffer (pH 6.1) was injected approximately 3 mm from the pH electrode. The effect of different molarities (50, 100 and 250 mM) of the MES buffer on the time-course of pH reduction was tested.

Data set [8] can be described thus: Gelation in the presence of surfactants and polymeric micelles. Type of data set: physicochemical. Further details: key: G = gel; C = crystalline; G^a: ^a= not stable.
Data set [9] in a line: Gelation in the presence of surfactants and polymeric micelles. More on the design: key: g = gel; i = insoluble; p = precipitate; sol = soluble. Type of data set: physicochemical.

MscL, sequence (P0A742 whole entry G22C): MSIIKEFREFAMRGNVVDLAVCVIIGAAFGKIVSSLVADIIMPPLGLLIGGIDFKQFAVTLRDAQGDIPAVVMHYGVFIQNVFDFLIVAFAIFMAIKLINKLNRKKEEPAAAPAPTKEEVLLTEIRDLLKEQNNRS

For the compound `CNC(=O)c1c(I)c(NC(C)=O)c(I)c(C(=O)O)c1I` [IOT, Iodo-thalamate], in [1], the “urinary excretion of IOT after subcutaneous injection” value was “completed in the first couple of hours after injection”.
Take “1-(polyethyleneglycol5000-ω-methylether)-4-(10′-cis-nonadecenyl)pyridinium Bromide [SF-79]”: the blood/RES ratio result in data set [2] (30 minutes after administration, complex containing 20% SF-79) is on record as “one”. Also, in data set [2] (120 minutes after injection, PEGylated complexes), the “circulation time / radioactivity in the blood” value is recorded as “the highest amount of radioactivity in the blood”.
Regarding mertiatide [MAG3], the “time to 50% urinary excretion” value is 3 min in data set [3] (intravenous) and > 12 min in [3] (subcutaneous).
“CHex(AmEtOEtOH)2(AmPhe-pNA) [compound 16]”: the “time until gel turned slightly yellow (release of nitroaniline)” value at α-chymotrypsin (0.25 wt % prodrug in mixed gel, 0.5 wt % gelator) was 20 h. Also, the “time until solution turned bright yellow (release of nitroaniline)” value on α-chymotrypsin (prodrug in solution layered with α-chymotrypsin) turned out to be 20 min.
As for `Cc1sc(C(=O)N[C@H](C)c2ccccc2)cc1C1=C(c2cc(C(=O)N[C@H](C)c3ccccc3)sc2C)CCC1` [Compound D, 1,2-Bis(2′-methyl-5′-{(((R)-1-phenylethyl)amino)carbonyl}thien-3′-yl)cyclopentene], the “sol-gel phase transition temperature of gel(c,I)” value in data set [4] (1.8 mM in toluene, after irradiation at 313 nm (PSS)) worked out at 62 °C. For the same compound, the “sol-gel phase transition temperature of gel(o)” value in [4] (1.8 mM in toluene, open form) came to 29 °C. Besides, the “increase of thermal stability compared to gel(o)” value in [4] (gel(c,I)) is “more than 30 °C”. In data set [5], the solvents gelated entry was “cyclohexane, 1-phenyloctane, toluene, n-butylether, benzene, tetralin”.
For “sodium (2-sulfonatoethyl)methane thiosulfonate [MTSES, reference compound]”, the “calcein release upon addition of MTS compound, versus MTSET” value at MscL is given as “the kinetics of release are significantly slower”.
`Nc1cccc2cccnc12` [8-aminoquinoline]: the “percentage released from DBC gel after 24 hours” value in data set [6] (DBC 0.35 wt %) was 15%; in data set [6] (DBC 0.5 wt %) it was 12%; in [6] (DBC 1.0 wt %), 10%.
In the case of “2-aminoethyl methanethiosulfonate [MTSEA, reference compound]”, on MscL, the “calcein release upon addition of MTS compound, versus MTSET” value is “the kinetics of release are significantly slower”.
As to `Oc1ccc2ccccc2n1` [2-hydroxyquinoline], the “percentage released from DBC gel after 24 hours” value in data set [6] (DBC 0.35 wt %) amounted to 38%; in [6] (DBC 0.5 wt %) it was 37%; in data set [6] (DBC 1.0 wt %) it was 36%.
For `O=S(=O)(O)CCN1CCOCC1` [MES], the “time for subcutaneous pH to return to pH 7.4” value in [7] (50 mM) and in data set [7] (100 mM) was “ten” each time. In addition, the “time pH remained below pH 6.5” value in [7] (250 mM) was “more than 30 minutes”.
Regarding `O=C(N[C@@H](CSSC[C@H](NC(=O)c1ccccc1)C(=O)O)C(=O)O)c1ccccc1` [DBC, dibenzoyl-L-cystine, reference compound], the Gelation properties result is given as “G” in data set [8] (CTAB < CMC, * pH reversible gelation); “G” in data set [8] (CTAB < CMC, ** pH reversible then thermoreversible gelation); “G” in data set [8] (CTAB > CMC, * pH reversible gelation); “G” in data set [8] (CTAB > CMC, ** pH reversible then thermoreversible gelation); “G” in data set [8] (Lactose der. < CMC, * pH reversible gelation); “G” in data set [8] (Lactose der. < CMC, ** pH reversible then thermoreversible gelation). Besides, the Gelation properties result in [8] (Lactose der. > CMC, * pH reversible gelation) was “G”; in data set [8] (Lactose der. > CMC, ** pH reversible then thermoreversible gelation), “G”; in [8] (Nonionic (Lactose der.) < CMC) it was “G”; in data set [8] (Nonionic (Lactose der.) > CMC), “G”; in data set [8] (Pluronic P 105, 100 mg · ml^−1), “g^a”; in data set [8] (SDS < CMC, * pH reversible gelation) it was “G”. The Gelation properties result in [8] (SDS < CMC, ** pH reversible then thermoreversible gelation) is “G”; in [8] (SDS > CMC, * pH reversible gelation) it was “G”; in data set [8] (SDS > CMC, ** pH reversible then thermoreversible gelation), “G”; in data set [8] (anionic (SDS) < CMC), “G”; in [8] (anionic (SDS) > CMC) it was “G”; in data set [8] (cationic (CTAB) < CMC), “G”. The Gelation properties result in [8] (cationic (CTAB) > CMC) is “C”; in data set [9] (Pluronic P 105, 5 mg · ml^−1), “g”; in data set [9] (Pluronic P 105, 5 mg · ml^−1, * pH reversible gelation), “g”; in [9] (Pluronic P 105, 5 mg · ml^−1, ** pH reversible then thermoreversible gelation) it was “g”; in [9] (Pluronic P 105, 100 mg · ml^−1, * pH reversible gelation), “g”; in data set [9] (Pluronic P 105, 100 mg · ml^−1, ** pH reversible then thermoreversible gelation) it was “g”. Further, the “response of gel to reducing agent” value (1 wt % gel, tris-(2-carboxy ethyl)phosphine) is on record as “gel-to-sol transition”. Further, the “gelation by pH decrease through D-gluconic acid formation” value (D-glucose, glucose oxidase, catalase, NaHCO3, after three days) is given as “completely gelified”.
